Reference: the NIST ThermoML archive (doi:10.1016/j.jct.2017.08.024)
± gives the expanded uncertainty stated by the source.

Tests used:
[1] = for surface tension liquid-gas: wilhelmy plate; for viscosity: 101.33 kPa, Liquid, Concentric cylinders viscometry
[2] = wn = mass fraction of the nth substance listed; settings: for surface tension liquid-gas: wilhelmy plate; for viscosity: 101 kPa, Liquid, Concentric cylinders viscometry

NCCO [2-aminoethan-1-ol]
[1]
Settings | surface tension liquid-gas [mN/m] | viscosity [mPa·s]
303.2 K | 47.7 ± 0.6 | 14.47 ± 0.45
313.2 K | 45.9 ± 0.6 | 9.87 ± 0.15
323.2 K | 44.2 ± 0.6 | 6.79 ± 0.14

NCCO [2-aminoethan-1-ol] + O
[2]
Settings | surface tension liquid-gas, w1 = 0.2 [mN/m] | surface tension liquid-gas, w1 = 0.3 [mN/m] | surface tension liquid-gas, w1 = 0.4 [mN/m] | surface tension liquid-gas, w1 = 1 [mN/m] | viscosity, w1 = 0.2 [mPa·s] | viscosity, w1 = 0.3 [mPa·s] | viscosity, w1 = 0.4 [mPa·s] | viscosity, w1 = 1 [mPa·s]
303.2 K | 62.1 ± 0.6 | 59.7 ± 0.6 | 57.8 ± 0.6 | 47.7 ± 0.6 | 1.51 ± 0.12 | 2.11 ± 0.13 | 3.12 ± 0.13 | 14.47 ± 0.45
313.2 K | 60.4 ± 0.6 | 58.4 ± 0.6 | 56.3 ± 0.6 | 45.9 ± 0.6 | 1.18 ± 0.12 | 1.63 ± 0.12 | 2.29 ± 0.13 | 9.87 ± 0.15
323.2 K | 58.9 ± 0.6 | 56.4 ± 0.6 | 54.6 ± 0.6 | 44.2 ± 0.6 | 0.97 ± 0.12 | 1.31 ± 0.12 | 1.79 ± 0.12 | 6.79 ± 0.14

OCCNCCO [diethanolamine]
[1]
Settings | surface tension liquid-gas [mN/m] | viscosity [mPa·s]
303.2 K | 46 ± 0.6 | 381.21 ± 20
313.2 K | 44.1 ± 0.6 | 188.64 ± 6.6
323.2 K | 42.8 ± 0.6 | 105.98 ± 5.5

OCCNCCO [diethanolamine] + O
[2]
Settings | surface tension liquid-gas, w1 = 0.2 [mN/m] | surface tension liquid-gas, w1 = 0.3 [mN/m] | surface tension liquid-gas, w1 = 0.4 [mN/m] | surface tension liquid-gas, w1 = 1 [mN/m] | viscosity, w1 = 0.2 [mPa·s] | viscosity, w1 = 0.3 [mPa·s] | viscosity, w1 = 0.4 [mPa·s] | viscosity, w1 = 1 [mPa·s]
303.2 K | 63.3 ± 0.6 | 60.5 ± 0.6 | 58.3 ± 0.6 | 46 ± 0.6 | 1.64 ± 0.12 | 2.57 ± 0.13 | 4.27 ± 0.14 | 381.21 ± 20
313.2 K | 62.1 ± 0.6 | 58.8 ± 0.6 | 56.6 ± 0.6 | 44.1 ± 0.6 | 1.29 ± 0.12 | 1.98 ± 0.13 | 3.01 ± 0.13 | 188.64 ± 6.6
323.2 K | 59.9 ± 0.6 | 57.4 ± 0.6 | 54.7 ± 0.6 | 42.8 ± 0.6 | 1.03 ± 0.12 | 1.42 ± 0.12 | 2.27 ± 0.13 | 105.98 ± 5.5

CO [methanol]
[1]
Settings | surface tension liquid-gas [mN/m] | viscosity [mPa·s]
303.2 K | 21.7 ± 0.6 | 0.51 ± 0.12
313.2 K | 20.9 ± 0.6 | 0.44 ± 0.12
323.2 K | 20 ± 0.6 | 0.39 ± 0.12

O [water]
[1]
Settings | surface tension liquid-gas [mN/m] | viscosity [mPa·s]
303.2 K | 71.1 ± 0.6 | 0.8 ± 0.12
313.2 K | 69.4 ± 0.6 | 0.65 ± 0.12
323.2 K | 67.7 ± 0.6 | 0.55 ± 0.12

O [water] + NCCO
[2], w2 = 0
Settings | surface tension liquid-gas [mN/m] | viscosity [mPa·s]
303.2 K | 71.1 ± 0.6 | 0.8 ± 0.12
313.2 K | 69.4 ± 0.6 | 0.65 ± 0.12
323.2 K | 67.7 ± 0.6 | 0.55 ± 0.12

O [water] + OCCNCCO
[2], w2 = 0
Settings | surface tension liquid-gas [mN/m] | viscosity [mPa·s]
303.2 K | 71.1 ± 0.6 | 0.8 ± 0.12
313.2 K | 69.4 ± 0.6 | 0.65 ± 0.12
323.2 K | 67.7 ± 0.6 | 0.55 ± 0.12
